Measured values from PubChem BioAssay (NCI).
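96-well plates; 48 h exposure; 5 concentrations. Endpoints by linear interpolation between flanking doses. Not reached: highest tested concentration assigned. GI50 = concentration required for 50% inhibition of growth. The concentration for full growth arrest is given as TGI.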

Tests used:
Experiment in all cases: growth of human tumour cells (NCI), 48 h
786-0 renal = tested on: 786-0 renal
A498 renal = tested on: A498 renal
A549 NSCLC = tested on: A549 NSCLC
ACHN renal = tested on: ACHN renal
BT-549 breast = tested on: BT-549 breast
CAKI-1 renal = tested on: CAKI-1 renal
CCRF-CEM leukemia = tested on: CCRF-CEM leukemia
COLO 205 colon = tested on: COLO 205 colon
DU-145 prostate = tested on: DU-145 prostate
HCC-2998 colon = tested on: HCC-2998 colon
HCT-116 colon = tested on: HCT-116 colon
HCT-15 colon = tested on: HCT-15 colon
HL-60(TB) leukemia = tested on: HL-60(TB) leukemia
HOP-62 NSCLC = tested on: HOP-62 NSCLC
HS 578T breast = tested on: HS 578T breast
HT29 colon = tested on: HT29 colon
IGROV1 ovarian = tested on: IGROV1 ovarian
K-562 leukemia = tested on: K-562 leukemia
KM12 colon = tested on: KM12 colon
LOX IMVI melanoma = tested on: LOX IMVI melanoma
M14 melanoma = tested on: M14 melanoma
MALME-3M melanoma = tested on: MALME-3M melanoma
MCF7 breast = tested on: MCF7 breast
MDA-MB-231 breast = tested on: MDA-MB-231 breast
MDA-MB-435 = tested on: MDA-MB-435
MOLT-4 leukemia = tested on: MOLT-4 leukemia
NCI-H226 lung = tested on: NCI-H226 lung
NCI-H23 lung = tested on: NCI-H23 lung
NCI-H460 lung = tested on: NCI-H460 lung
NCI-H522 lung = tested on: NCI-H522 lung
NCI/ADR-RES ovarian = tested on: NCI/ADR-RES ovarian
OVCAR-3 ovarian = tested on: OVCAR-3 ovarian
OVCAR-4 ovarian = tested on: OVCAR-4 ovarian
OVCAR-8 ovarian = tested on: OVCAR-8 ovarian
PC-3 prostate = tested on: PC-3 prostate
RPMI-8226 leukemia = tested on: RPMI-8226 leukemia
RXF 393 renal = tested on: RXF 393 renal
SF-268 CNS = tested on: SF-268 CNS
SF-295 CNS = tested on: SF-295 CNS
SF-539 CNS = tested on: SF-539 CNS
SK-MEL-2 melanoma = tested on: SK-MEL-2 melanoma
SK-MEL-28 melanoma = tested on: SK-MEL-28 melanoma
SK-MEL-5 melanoma = tested on: SK-MEL-5 melanoma
SK-OV-3 ovarian = tested on: SK-OV-3 ovarian
SN12C renal = tested on: SN12C renal
SNB-19 CNS = tested on: SNB-19 CNS
SNB-75 CNS = tested on: SNB-75 CNS
SR leukemia = tested on: SR leukemia
SW-620 colon = tested on: SW-620 colon
T-47D breast = tested on: T-47D breast
TK-10 renal = tested on: TK-10 renal
U251 CNS = tested on: U251 CNS
UACC-257 melanoma = tested on: UACC-257 melanoma
UACC-62 melanoma = tested on: UACC-62 melanoma
UO-31 renal = tested on: UO-31 renal
EKVX NSCLC = tested on: EKVX NSCLC
HOP-92 NSCLC = tested on: HOP-92 NSCLC
OVCAR-5 ovarian = tested on: OVCAR-5 ovarian

SMILES: CC(=O)Nc1ccc2c(C3=C(c4cn(C)c5ccccc45)C(=O)NC3=O)cn(C)c2c1
- GI50 (786-0 renal): 2090 nM
- TGI (786-0 renal): > 25 µM
- GI50 (A498 renal): 386 nM
- TGI (A498 renal): 12.8 µM
- GI50 (A549 NSCLC): 1050 nM
- TGI (A549 NSCLC): > 25 µM
- GI50 (ACHN renal): 1420 nM
- TGI (ACHN renal): > 25 µM
- GI50 (BT-549 breast): > 25 µM
- TGI (BT-549 breast): > 25 µM
- GI50 (CAKI-1 renal): 2080 nM
- TGI (CAKI-1 renal): > 25 µM
- GI50 (CCRF-CEM leukemia): 77.3 nM
- TGI (CCRF-CEM leukemia): > 25 µM
- GI50 (COLO 205 colon): 691 nM
- TGI (COLO 205 colon): 1.72 µM
- GI50 (DU-145 prostate): 1010 nM
- TGI (DU-145 prostate): > 24.2 µM
- GI50 (HCC-2998 colon): 890 nM
- TGI (HCC-2998 colon): > 25 µM
- GI50 (HCT-116 colon): 697 nM
- TGI (HCT-116 colon): > 16.6 µM
- GI50 (HCT-15 colon): 1240 nM
- TGI (HCT-15 colon): > 25 µM
- GI50 (HL-60(TB) leukemia): 921 nM
- TGI (HL-60(TB) leukemia): > 25 µM
- GI50 (HOP-62 NSCLC): 1150 nM
- TGI (HOP-62 NSCLC): > 25 µM
- GI50 (HS 578T breast): 443 nM
- TGI (HS 578T breast): > 25 µM
- GI50 (HT29 colon): 833 nM
- TGI (HT29 colon): > 25 µM
- GI50 (IGROV1 ovarian): 1470 nM
- TGI (IGROV1 ovarian): > 25 µM
- GI50 (K-562 leukemia): 762 nM
- TGI (K-562 leukemia): > 25 µM
- GI50 (KM12 colon): 749 nM
- TGI (KM12 colon): > 15 µM
- GI50 (LOX IMVI melanoma): 634 nM
- TGI (LOX IMVI melanoma): > 25 µM
- GI50 (M14 melanoma): 945 nM
- TGI (M14 melanoma): > 25 µM
- GI50 (MALME-3M melanoma): > 25 µM
- TGI (MALME-3M melanoma): > 25 µM
- GI50 (MCF7 breast): 294 nM
- TGI (MCF7 breast): > 25 µM
- GI50 (MDA-MB-231 breast): 821 nM
- TGI (MDA-MB-231 breast): > 25 µM
- GI50 (MDA-MB-435): 118 nM
- TGI (MDA-MB-435): 842 nM
- GI50 (MOLT-4 leukemia): 1060 nM
- TGI (MOLT-4 leukemia): > 25 µM
- GI50 (NCI-H226 lung): > 6.26 µM
- TGI (NCI-H226 lung): > 25 µM
- GI50 (NCI-H23 lung): 1160 nM
- TGI (NCI-H23 lung): > 25 µM
- GI50 (NCI-H460 lung): 881 nM
- TGI (NCI-H460 lung): > 25 µM
- GI50 (NCI-H522 lung): 218 nM
- TGI (NCI-H522 lung): 1310 nM
- GI50 (NCI/ADR-RES ovarian): 13.9 µM
- TGI (NCI/ADR-RES ovarian): > 25 µM
- GI50 (OVCAR-3 ovarian): 737 nM
- TGI (OVCAR-3 ovarian): 3.1 µM
- GI50 (OVCAR-4 ovarian): 1280 nM
- TGI (OVCAR-4 ovarian): > 25 µM
- GI50 (OVCAR-8 ovarian): 900 nM
- TGI (OVCAR-8 ovarian): > 25 µM
- GI50 (PC-3 prostate): 802 nM
- TGI (PC-3 prostate): > 25 µM
- GI50 (RPMI-8226 leukemia): 1110 nM
- TGI (RPMI-8226 leukemia): > 25 µM
- GI50 (RXF 393 renal): 512 nM
- TGI (RXF 393 renal): > 7.02 µM
- GI50 (SF-268 CNS): 1360 nM
- TGI (SF-268 CNS): > 25 µM
- GI50 (SF-295 CNS): 552 nM
- TGI (SF-295 CNS): > 5.63 µM
- GI50 (SF-539 CNS): 376 nM
- TGI (SF-539 CNS): 1400 nM
- GI50 (SK-MEL-2 melanoma): 5.69 µM
- TGI (SK-MEL-2 melanoma): > 25 µM
- GI50 (SK-MEL-28 melanoma): > 5.94 µM
- TGI (SK-MEL-28 melanoma): > 25 µM
- GI50 (SK-MEL-5 melanoma): 637 nM
- TGI (SK-MEL-5 melanoma): 3.12 µM
- GI50 (SK-OV-3 ovarian): 1530 nM
- TGI (SK-OV-3 ovarian): > 25 µM
- GI50 (SN12C renal): 1250 nM
- TGI (SN12C renal): > 25 µM
- GI50 (SNB-19 CNS): 5.13 µM
- TGI (SNB-19 CNS): > 25 µM
- GI50 (SNB-75 CNS): 215 nM
- TGI (SNB-75 CNS): > 25 µM
- GI50 (SR leukemia): 363 nM
- TGI (SR leukemia): > 25 µM
- GI50 (SW-620 colon): 892 nM
- TGI (SW-620 colon): > 25 µM
- GI50 (T-47D breast): > 25 µM
- TGI (T-47D breast): > 25 µM
- GI50 (TK-10 renal): > 25 µM
- TGI (TK-10 renal): > 25 µM
- GI50 (U251 CNS): 889 nM
- TGI (U251 CNS): > 25 µM
- GI50 (UACC-257 melanoma): > 14.9 µM
- TGI (UACC-257 melanoma): > 25 µM
- GI50 (UACC-62 melanoma): 1300 nM
- TGI (UACC-62 melanoma): > 25 µM
- GI50 (UO-31 renal): > 9.45 µM
- TGI (UO-31 renal): > 25 µM

SMILES: c1ccc(CSSSCc2ccccc2)cc1
- TGI (786-0 renal): 12.8 µM
- TGI (A498 renal): > 100 µM
- TGI (A549 NSCLC): > 100 µM
- TGI (ACHN renal): 29.1 µM
- TGI (BT-549 breast): 19.8 µM
- TGI (CAKI-1 renal): 22.6 µM
- TGI (COLO 205 colon): 11.6 µM
- TGI (DU-145 prostate): 4.97 µM
- TGI (EKVX NSCLC): > 100 µM
- TGI (HCC-2998 colon): 17.8 µM
- TGI (HCT-116 colon): 12.1 µM
- TGI (HCT-15 colon): > 100 µM
- TGI (HL-60(TB) leukemia): 3.22 µM
- TGI (HOP-62 NSCLC): 5.03 µM
- TGI (HOP-92 NSCLC): > 92.7 µM
- TGI (HS 578T breast): > 31 µM
- TGI (HT29 colon): 19.6 µM
- TGI (IGROV1 ovarian): > 90.9 µM
- TGI (KM12 colon): > 100 µM
- TGI (LOX IMVI melanoma): 17.4 µM
- TGI (M14 melanoma): > 100 µM
- TGI (MALME-3M melanoma): > 100 µM
- TGI (MCF7 breast): > 42.1 µM
- TGI (MDA-MB-231 breast): 23.7 µM
- TGI (MDA-MB-435): 2830 nM
- TGI (MOLT-4 leukemia): > 100 µM
- TGI (NCI-H23 lung): > 48.5 µM
- TGI (NCI-H460 lung): 16.2 µM
- TGI (NCI-H522 lung): 3330 nM
- TGI (NCI/ADR-RES ovarian): 9.78 µM
- TGI (OVCAR-3 ovarian): 2.98 µM
- TGI (OVCAR-4 ovarian): 38 µM
- TGI (OVCAR-5 ovarian): 41.2 µM
- TGI (OVCAR-8 ovarian): > 41.2 µM
- TGI (PC-3 prostate): > 100 µM
- TGI (RPMI-8226 leukemia): 10.8 µM
- TGI (RXF 393 renal): 14.8 µM
- TGI (SF-268 CNS): 31.4 µM
- TGI (SF-295 CNS): 49.8 µM
- TGI (SK-MEL-2 melanoma): 8.36 µM
- TGI (SK-MEL-28 melanoma): > 100 µM
- TGI (SK-MEL-5 melanoma): 15.3 µM
- TGI (SK-OV-3 ovarian): 22.9 µM
- TGI (SN12C renal): 18 µM
- TGI (SNB-19 CNS): > 100 µM
- TGI (SNB-75 CNS): 39.4 µM
- TGI (SR leukemia): 87.3 µM
- TGI (SW-620 colon): > 51.9 µM
- TGI (T-47D breast): > 64.5 µM
- TGI (TK-10 renal): > 73.9 µM
- TGI (U251 CNS): 17.1 µM
- TGI (UACC-257 melanoma): > 95.4 µM
- TGI (UACC-62 melanoma): 16.1 µM
- TGI (UO-31 renal): 37.1 µM
